Results on 1 substance are retold here after patent US20260183408A1, “POLYPEPTIDE AND USE THEREOF” (SHENZHEN CHENYANG BIOLOGICAL TECHNOLOGY CO., LTD, priority 2022, published 2026).

Experiment [1] has as its system SPS mice. As to the kind of experiment: Corticosterone, cortisol, DA and 5-HT levels in hippocampus and cortex. The class given is in vivo, mouse.
Experiment [2] has as its system CRS mice. As to the kind of experiment: Sucrose preference test (SPT). The experiment is classed as in vivo, mouse. The conditions noted are these: single intraperitoneal 3 nmol/g, compared with TAT-treated mice (FIG. 12). How it is done: (§1) The C57BL/6J mice were horizontally fixed for 6 h (from 10 to 16 o'clock) in a first acrylic restraint which is cylindrical and flat-bottomed (25×90 mm) every day for 2 weeks. The filter had several slots which could adapt to the size of each mouse to firmly restrain the mouse and inhibit body movements of the limb and trunk without causing pain. Immediately after being restrained, the mice were sent back to their cages. Unrestrained mice (control) stayed in their cages when no CRS procedure was performed. Neither the control mice nor the CRS mice could have access to food and water during the CRS exposure.
The C57BL/6J mice were subjected to various stress including restraint (for 4 h), cage tilting (for 45 times, with 12 h each time), light-dark cycle reversal (once), flash (for 12 h), and dirty cage (for 2 times, with 14 h each time). The protocol lasted 6 weeks. Control mice were not subjected to corresponding stress.
The mice were treated with TAT or TAT-D2R-KL (single intraperitoneal administration at 3 nmol/g in both cases). […]
SPT (Sucrose preference test): A two-bottle choice paradigm was adopted. […] Finally, the volume of consumed water or sucrose solution was recorded and calculation was carried out with the following equation (I): […]

In experiment [3] the test system is CRS mice. The experiment in a line: Elevated plus maze (EPM) test. The conditions noted are these: single intraperitoneal 3 nmol/g, 1 hour later (FIG. 14). The class given is in vivo, mouse. How it is done:
as §1
In order to evaluate the anti-anxiety-like effect of the polypeptide of the present invention, a CRS mouse model was established using the method in Example 6. […]
EPM: The device consisted of two open arms (25 cm×8 cm) and two closed arms (25 cm×8 cm) with the intersection as the central area (8 cm×8 cm), elevated 40 cm above the ground. One hour after the polypeptide treatment, the mice were placed in the central area facing an open arm, and their free movements were recorded for 5 min. […] The time spent in an open arm, the time spent in a closed arm, and the total moving distance of the mice were recorded.

For experiment [4], the system named is CRS mice. As to the kind of experiment: Open field test (OFT, time spent in the central area). The experiment is classed as in vivo, mouse. The conditions noted are these: single intraperitoneal 3 nmol/g, 1 hour later (FIG. 13). Here is the method: as §1
In order to evaluate the anti-anxiety-like effect of the polypeptide of the present invention, a CRS mouse model was established using the method in Example 6. The mice were treated with TAT or TAT-D2R-KL (single intraperitoneal administration at 3 nmol/g in both cases), and 1 hour later, an open field test (OFT) for testing the time spent in the central area and an elevated plus maze (EPM) test were performed. […]
OFT (for testing the time spent in the central area): The bottom of the open field was divided into 25 squares of equal area, with the 9 squares in the middle defined as the central area. One hour after the polypeptide treatment, the mice were placed in the central area to be recorded for 5 min, and the time spent in the central area by the mice was recorded.

Experiment [5] deals with SPS mice. The experiment in a line: Fear conditioning, safety learning and recall tests (freezing level). The class given is in vivo. The conditions noted are these: treated for 1.5 h, 3 nM intraperitoneally, 100 μl/10 g mouse (FIG. 7 right). Here is the method: The SPS model was established with male Balb/c mice. The modified SPS protocol was used to comprise a series of stress exposure: 2 hours of restraint stress (inside a 50-mL plastic tube having several air holes), 3 min of rest, 12 min of forced swimming in a transparent glass tank (at about 24° C.), 15 min of rest (drying under a warming lamp), 20 min of predator (rat) odor exposure, followed by ether anesthesia (until the mice completely lost consciousness). Thereafter, the mice are transferred back to their cages with fresh bedding. The control mice were housed in groups and received no stress exposure. After the model establishment, all mice were raised undisturbed for one week.
The fear conditioning, safety learning, and recall tests were carried out in two contexts (the fear conditioning and safety learning tests were carried out in context A; and the recall test was carried out in context B). The shapes and smells provided in contexts A and B were different. Indoor floors were cleaned with 1% acetic acid or 75% ethanol prior to testing. […] After the experiment was completed, the freezing level was manually calculated based on the recorded video. The criterion for a freezing behavior is that if no movement other than normal breathing of a mouse was detected within 2 seconds, then the mouse was considered freezing. […]

Regarding “TAT-D2R-KL: C-terminus of the KL (K226-L240) region of D2R fused to the transduction domain of HIV-1 Tat protein (SEQ ID NO: 5)”, the level of cortisol result in the experiment with SPS mice [1] (hippocampus and cortex of SPS mice (FIG. 9)) is recorded as “did not significantly change”. Moreover, the “level of DA” value with SPS mice [1] (hippocampus and cortex of SPS mice (FIG. 10)) is listed as “did not significantly change”. The elevated corticosterone level result in the experiment with SPS mice [1] (hippocampus of SPS mice (FIG. 8)) is listed as “significantly reduced”. Also, the “upregulated 5-HT” value in the experiment on SPS mice [1] (hippocampus of SPS mice (FIG. 11)) was “did not reduce”. Moreover, the sucrose preference result in the experiment with CRS mice [2] is recorded as “significantly enhanced”. For the same substance, the “time spent in an open arm” value in the experiment with CRS mice [3] is reported as “significantly increased”. Also, the “time spent in the central area” value in the experiment with CRS mice [4] was “significantly increased”. Moreover, in the experiment on SPS mice [5], the freezing level entry is given as “reduced”.
